{"source": "patent US20100310679A1", "about": "“NOVEL COMPOSITIONS FOR CONTROL OF MALICIOUS MARINE ANEMONES” (priority 2008, published 2010)"}
{"system": "marine pest anemone", "assay": "Empirically determined effective concentration ranges of ingredients in agar-anemonescide-desensitizer preparation", "format": "in vivo", "settings": "concentration of the ingredient in the agar-anemonescide-desensitizer preparation", "source_text": "Table 1 also lists the empirically determined effective concentration ranges of the various ingredients. While it is believed that less than the minimal effective concentrations might impair the effectiveness of that ingredient, and more than effective concentration will not further improve the effectiveness, it is to be understood that the table is provided by way of enablement and is not to be construed as limiting the invention to the preferred ranges."}
{"smiles": "O.O.[Ca+2].[Cl-].[Cl-]", "note": "[CaCl2•2H2O]", "Empirically Determined Effective Concentration range (Min-Max)": "10-500 g/l"}
{"smiles": "O=S(=O)([O-])[O-].[Ca+2]", "note": "[CaSO4, calcium sulphate]", "Empirically Determined Effective Concentration range (Min-Max)": "5 to 150 g/L"}
{"smiles": "O=S(=O)([O-])[O-].[Mg+2]", "note": "[MgSO4, magnesium sulphate]", "Empirically Determined Effective Concentration range (Min-Max)": "0.5 to 10 g/L"}
{"smiles": "[Na+].[OH-]", "note": "[NaOH, sodium hydroxide]", "Empirically Determined Effective Concentration range (Min-Max)": "5 to 120 g/L"}
{"system": "sea anemone Anthopleura midorii", "assay": "not given", "settings": "added to artificial food; cited from earlier work"}
{"smiles": "N[C@@H](CS)C(=O)O", "note": "[Cysteine]", "effect on feeding motions": "induced food ingestion"}
{"smiles": "C[C@H](N)C(=O)O", "note": "[alanine]", "effect on feeding motions": "stimulated the retention of artificial food by tentacles"}
{"smiles": "NC(=O)C[C@H](N)C(=O)O", "note": "[asparagine]", "effect on feeding motions": "stimulated the retention of artificial food by tentacles"}
{"smiles": "NCC(=O)O", "note": "[glycine]", "effect on feeding motions": "stimulated the retention of artificial food by tentacles"}
{"smiles": "N[C@@H](Cc1c[nH]cn1)C(=O)O", "note": "[histidine]", "effect on feeding motions": "stimulated the retention of artificial food by tentacles"}
{"smiles": "O=C(O)[C@@H]1CCCN1", "note": "[proline]", "effect on feeding motions": "evoked mouth opening"}
{"smiles": "N[C@@H](CCC(=O)N[C@@H](CS)C(=O)NCC(=O)O)C(=O)O", "note": "[reduced glutathione (GSH), reduced glutathione]", "effect on feeding motions": "induced food ingestion"}
